This note sets out measurements from paper PMC6010098, “Synthesis, antitumour and antioxidant activities of novel α,β-unsaturated ketones and related heterocyclic analogues: EGFR inhibition and molecular modelling study” (Journal of Enzyme Inhibition and Medicinal Chemistry, 2018).

Series [1] deals with HepG2 cells. As to the kind of experiment: MTT antitumour assay, HepG2. Particulars: human hepato-cellular carcinoma cell line, mean ± SD, n = 3. The format is cell-based. As to the method: (§1) The evaluation of the antitumour activity was performed using tetrazolium salt MTT (3-(4,5-dimethyl-2-thiazolyl)-2,5-diphenyl-2H-tetrazolium bromide) assay as reported[62]^,[63].
(§2) The designed compounds were evaluated for their in vitro antitumour effects via the standard 3-(4,5-dimethylthiazol-2-yl)-2,5-diphenyltetrazolium bromide (MTT) method against a panel of four human tumour cell lines; namely, hepatocellular carcinoma cell line (HepG2), breast cancer cell line (MCF-7), human cervical cancer cell line (HeLa), and prostate cancer cell line (PC-3)[62]^,[63]^,[72]. The antitumour activities of the designed compounds 4–12, along with that of the reference drugs 5-FU and afatinib are shown in Table 1.
Background: Tetrazolium dyes change colour on reduction, which living cells bring about.

Series [2] concerns MCF-7 cells. As to the kind of experiment: MTT antitumour assay, MCF-7. The series is classed as cell-based. Particulars: MCF7, human breast adenocarcinoma cell line, mean ± SD, n = 3. As to the method: as §1, §2
Series [3] concerns HeLa cells. As to the kind of experiment: MTT antitumour assay, HeLa. The format is cell-based. Particulars: human cervical epithelioid carcinoma cell line, mean ± SD, n = 3. How it is done:
as §1
The designed compounds were evaluated for their in vitro antitumour effects via the standard 3-(4,5-dimethylthiazol-2-yl)-2,5-diphenyltetrazolium bromide (MTT) method against a panel of four human tumour cell lines; namely, hepatocellular carcinoma cell line (HepG2), breast cancer cell line (MCF-7), human cervical cancer cell line (HeLa), and prostate cancer cell line (PC-3)[62]^,[63]^,[72].

Series [4] has as its system PC-3 cells. Description: MTT antitumour assay, PC-3. The series is classed as cell-based. Conditions: PC-3; MTT; human prostate cancer cell line; mean ± SD, n = 3. How it is done:
as §1, §2

The nature of series [5]: ABTS radical cation scavenging (antioxidant) assay. Particulars: 20 µl of 1 mg/ml test sample (L-ascorbic acid 20 µl, 2 mM). As to the method: The absorbance (Acontrol) of a green-blue solution (ABTS^+ radical solution) resulted from a mixture of ABTS and manganese dioxide (MnO2) and was recorded at λmax 734 nm, according to the reported procedure[64]^,[65]. The absorbance (Atest) was measured upon the addition of 20 µl of 1 mg/ml solution of the test sample in spectroscopic grade methanol/phosphate buffer (1:1 v/v) to the ABTS solution. The decrease in absorbance is expressed as % inhibition, which can be calculated from the following equation: % inhibition = Acontrol-Atest/Acontrol×100.
L-Ascorbic acid 20 µl (2 mM) solution was used as standard antioxidant (positive control). A blank sample was run using only methanol/phosphate buffer (1:1), while the negative control was run with ABTS and the methanol/phosphate buffer.
The assay is based on measuring the ability of the tested compounds to scavenge the long-life radical cation of ABTS[22]^,[43]^,[64]^,[65].

The structures appear in SMILES notation. Some results are limits rather than exact numbers.

The term IC50 denotes the midpoint of a concentration-inhibition curve. A low value points to greater potency in that assay. In general, melting point refers to the temperature, or range, at which the solid turns liquid. The molecule `Cc1ccc(C2=NNC(c3ccc(OC4CCCC4)cc3)C2)cc1` (stereo not drawn) [8a, 5-(4-(Cyclopentyloxy)phenyl)-3-(4-methylphenyl)-4,5-dihydro-1H-pyrazole] gave a melting point of 145 to 146 °C. Half-maximal inhibition in series [1] (IC50) was put at 18.9 ± 1.35 µM. This molecule had a 50% inhibitory concentration (IC50) in series [2] of 29.3 ± 1.97 µM. The same molecule registered an IC50 in series [3] of 16.2 ± 1.36 µM. Also, half-maximal inhibition in series [4] (IC50) was put at 12.7 ± 1.13 µM. For the same molecule, the “%Inhibition of the ABTS radical cation” value in series [5] is 53.0%.
In turn, `Cc1ccc(C2=NOC(c3ccc(OC4CCCC4)cc3)C2)cc1` (stereo not drawn) [compound 9, 5-(4-(cyclopentyloxy)phenyl)-3-(4-methylphenyl)-4,5-dihydroisoxazole] had a melting point of 120 to 122 °C. This molecule registered an IC50 in series [1] of 62.3 ± 4.1 µM. Further, it took 58.4 ± 4.5 µM to reach half-maximal inhibition in series [2] (IC50). The molecule further yielded an IC50 in series [3] of 46.2 ± 3.3 µM. Also, half-maximal inhibition in series [4] (IC50) required 50.1 ± 3.55 µM. The “%Inhibition of the ABTS radical cation” value in series [5] turned out to be 60.0%.
Consider `O=C(O)c1cc(C=Cc2ccc(OC3CCCC3)cc2)nc2ccc(F)cc12` [12b, 2-(4-(Cyclopentyloxy)styryl)-6-fluoroquinoline-4-carboxylicacid], for which the melting point was greater than 300 °C. In series [1], this molecule displayed a half-maximal inhibitory concentration (IC50) of 30.8 ± 2.07 µM. In series [2], this molecule came in with an IC50 of 48.1 ± 3.25 µM. Also, the IC50 in series [3] came to 66.8 ± 4.07 µM. 69.4 ± 4.32 µM corresponded to half-maximal inhibition in series [4] (IC50). In addition, in series [5], the “%Inhibition of the ABTS radical cation” value came to 50.0%.
